Results on four compounds are retold here after BindingDB's records for doi:10.1021/jm050373g (Merck Research Laboratories, 2005).

The EC50 is the concentration giving half of the maximal effect. Read a high EC50 as weaker potency.

For the experiment, the target named is PPAR-alpha (Mesocricetus auratus). The experiment can be described thus: Effective concentration against hamster PPAR-alpha in Gal4 transactivation assay.
Compound `CCC1(C(=O)O)Cc2cc(OCCCOc3ccc(OCC(F)(F)F)cc3Cl)ccc2O1` (centres undefined) [5-{3-[2-Chloro-4-(2,2,2-trifluoro-ethoxy)-phenoxy]-propoxy}-2-ethyl-2,3-dihydro-benzofuran-2-carboxylic acid] came in with an EC50 of 0.402 µM.
`CC(C)[C@@]1(C(=O)O)Cc2cc(OCCCOc3cc(C(F)(F)F)ccc3Cl)ccc2O1` [(R)-5-[3-(2-Chloro-5-trifluoromethyl-phenoxy)-propoxy]-2-isopropyl-2,3-dihydro-benzofuran-2-carboxylic acid] displayed an EC50 of 0.42 µM.
Then `CC(C)[C@@]1(C(=O)O)Cc2cc(OCCOc3ccc(OC(F)(F)F)cc3Cl)ccc2O1` [(R)-5-[2-(2-Chloro-4-trifluoromethoxy-phenoxy)-ethoxy]-2-isopropyl-2,3-dihydro-benzofuran-2-carboxylic acid], with 0.37 µM; and `CCC1(C(=O)O)Cc2cc(OCCCOc3ccc(C(C)(C)C)cc3Cl)ccc2O1` (centres undefined) [5-[3-(4-tert-Butyl-2-chloro-phenoxy)-propoxy]-2-ethyl-2,3-dihydro-benzofuran-2-carboxylic acid], with 0.28 µM.
